Test results: the kinase profiling compilation of Christmann-Franck et al. (2016)

Assays:
Test in all cases: KINOMEscan competition binding
Conditions in all cases: compound 10.0 µM
BUB1 (human) = BUB1 (human) (UniProt O43683)
RPS6KA3 KD2 (human) = RPS6KA3 KD2 (human) (UniProt P51812)
WNK3 (human) = WNK3 (human) (UniProt Q9BYP7)
ABL1 (human) = ABL1 (human) (UniProt P00519)
[1] = test system: ABL1 (human), P00519 [F317L]
NEK10 (human) = NEK10 (human) (UniProt Q6ZWH5)

RPS6KA3 KD2 (human), sequence (P51812 whole entry, looked up): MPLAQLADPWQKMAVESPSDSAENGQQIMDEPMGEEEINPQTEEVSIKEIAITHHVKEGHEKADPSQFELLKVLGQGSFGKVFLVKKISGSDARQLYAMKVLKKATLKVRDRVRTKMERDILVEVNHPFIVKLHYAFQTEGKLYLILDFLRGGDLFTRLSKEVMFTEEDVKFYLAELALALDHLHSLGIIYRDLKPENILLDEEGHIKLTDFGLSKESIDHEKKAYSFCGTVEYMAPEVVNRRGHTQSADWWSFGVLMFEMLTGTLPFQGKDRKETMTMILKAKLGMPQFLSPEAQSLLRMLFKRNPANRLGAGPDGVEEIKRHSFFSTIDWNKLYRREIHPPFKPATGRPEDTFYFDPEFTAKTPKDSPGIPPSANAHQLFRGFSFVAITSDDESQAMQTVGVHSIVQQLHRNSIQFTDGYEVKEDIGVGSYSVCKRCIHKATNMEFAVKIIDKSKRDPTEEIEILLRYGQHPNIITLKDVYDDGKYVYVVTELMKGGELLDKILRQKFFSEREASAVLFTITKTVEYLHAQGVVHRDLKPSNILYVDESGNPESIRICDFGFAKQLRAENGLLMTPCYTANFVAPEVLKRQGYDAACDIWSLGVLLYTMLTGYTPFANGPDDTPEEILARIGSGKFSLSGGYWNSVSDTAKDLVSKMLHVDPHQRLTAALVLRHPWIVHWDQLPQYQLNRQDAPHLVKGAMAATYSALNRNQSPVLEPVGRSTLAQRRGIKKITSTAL
ABL1 (human), P00519 [F317L], sequence (P00519 whole entry F317L, looked up): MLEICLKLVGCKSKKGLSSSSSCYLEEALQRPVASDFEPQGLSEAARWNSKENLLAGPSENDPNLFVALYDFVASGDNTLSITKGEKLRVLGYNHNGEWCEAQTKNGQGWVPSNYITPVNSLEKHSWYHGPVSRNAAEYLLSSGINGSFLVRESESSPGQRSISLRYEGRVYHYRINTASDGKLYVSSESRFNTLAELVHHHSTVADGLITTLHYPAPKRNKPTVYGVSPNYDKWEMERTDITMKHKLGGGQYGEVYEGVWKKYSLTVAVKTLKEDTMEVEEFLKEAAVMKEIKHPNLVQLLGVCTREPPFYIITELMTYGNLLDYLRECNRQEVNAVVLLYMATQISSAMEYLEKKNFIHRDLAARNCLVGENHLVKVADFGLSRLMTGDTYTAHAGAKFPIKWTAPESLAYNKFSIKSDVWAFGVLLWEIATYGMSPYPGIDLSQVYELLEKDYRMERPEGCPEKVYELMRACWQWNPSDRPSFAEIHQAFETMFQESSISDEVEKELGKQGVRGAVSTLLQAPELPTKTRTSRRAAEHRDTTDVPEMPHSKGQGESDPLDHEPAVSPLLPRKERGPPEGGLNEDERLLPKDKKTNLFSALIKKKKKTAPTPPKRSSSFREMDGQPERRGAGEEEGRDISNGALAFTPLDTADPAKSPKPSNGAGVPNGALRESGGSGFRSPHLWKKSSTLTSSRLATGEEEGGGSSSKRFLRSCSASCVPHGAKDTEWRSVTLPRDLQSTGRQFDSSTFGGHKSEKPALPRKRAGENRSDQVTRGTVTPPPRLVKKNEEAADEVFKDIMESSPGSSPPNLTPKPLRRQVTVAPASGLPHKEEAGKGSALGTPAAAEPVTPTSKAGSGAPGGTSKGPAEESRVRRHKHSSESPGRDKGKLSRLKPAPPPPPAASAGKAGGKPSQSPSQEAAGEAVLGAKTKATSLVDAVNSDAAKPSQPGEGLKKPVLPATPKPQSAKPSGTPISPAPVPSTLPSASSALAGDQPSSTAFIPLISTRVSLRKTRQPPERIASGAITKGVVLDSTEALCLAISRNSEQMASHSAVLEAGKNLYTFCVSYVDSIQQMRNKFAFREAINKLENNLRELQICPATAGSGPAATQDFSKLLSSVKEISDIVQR
ABL1 (human), sequence (P00519 whole entry, looked up): as the sequence (P00519 whole entry F317L, looked up) above, with L317F counted along it
BUB1 (human), sequence (O43683 whole entry, looked up): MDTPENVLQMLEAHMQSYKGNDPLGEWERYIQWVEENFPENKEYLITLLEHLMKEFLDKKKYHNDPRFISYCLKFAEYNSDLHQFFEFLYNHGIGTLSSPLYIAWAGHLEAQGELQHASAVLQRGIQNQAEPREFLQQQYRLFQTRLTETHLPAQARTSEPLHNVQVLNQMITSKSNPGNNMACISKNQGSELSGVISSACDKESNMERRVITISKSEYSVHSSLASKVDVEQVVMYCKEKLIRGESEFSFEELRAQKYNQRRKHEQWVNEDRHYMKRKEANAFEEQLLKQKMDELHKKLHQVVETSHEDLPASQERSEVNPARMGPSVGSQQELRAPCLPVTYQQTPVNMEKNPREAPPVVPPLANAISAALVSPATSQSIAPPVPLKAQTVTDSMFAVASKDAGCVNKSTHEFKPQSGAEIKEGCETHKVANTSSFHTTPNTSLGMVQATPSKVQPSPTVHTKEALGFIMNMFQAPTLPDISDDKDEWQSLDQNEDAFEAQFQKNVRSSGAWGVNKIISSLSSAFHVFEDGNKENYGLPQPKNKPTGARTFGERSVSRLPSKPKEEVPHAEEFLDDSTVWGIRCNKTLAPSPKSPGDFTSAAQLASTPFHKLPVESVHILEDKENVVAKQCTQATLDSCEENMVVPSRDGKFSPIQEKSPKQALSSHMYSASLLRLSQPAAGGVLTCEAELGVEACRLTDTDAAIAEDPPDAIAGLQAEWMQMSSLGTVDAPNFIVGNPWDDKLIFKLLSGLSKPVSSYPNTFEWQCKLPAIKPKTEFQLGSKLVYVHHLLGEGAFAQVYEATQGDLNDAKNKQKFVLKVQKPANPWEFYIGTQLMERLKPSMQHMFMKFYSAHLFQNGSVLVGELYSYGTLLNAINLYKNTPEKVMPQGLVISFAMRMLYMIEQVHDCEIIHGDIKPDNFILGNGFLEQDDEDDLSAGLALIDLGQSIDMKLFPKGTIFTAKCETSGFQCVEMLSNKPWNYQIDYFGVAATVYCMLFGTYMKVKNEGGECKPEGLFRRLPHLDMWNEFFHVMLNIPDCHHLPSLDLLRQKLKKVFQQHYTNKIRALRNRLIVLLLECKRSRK
WNK3 (human), sequence (Q9BYP7 whole entry, looked up): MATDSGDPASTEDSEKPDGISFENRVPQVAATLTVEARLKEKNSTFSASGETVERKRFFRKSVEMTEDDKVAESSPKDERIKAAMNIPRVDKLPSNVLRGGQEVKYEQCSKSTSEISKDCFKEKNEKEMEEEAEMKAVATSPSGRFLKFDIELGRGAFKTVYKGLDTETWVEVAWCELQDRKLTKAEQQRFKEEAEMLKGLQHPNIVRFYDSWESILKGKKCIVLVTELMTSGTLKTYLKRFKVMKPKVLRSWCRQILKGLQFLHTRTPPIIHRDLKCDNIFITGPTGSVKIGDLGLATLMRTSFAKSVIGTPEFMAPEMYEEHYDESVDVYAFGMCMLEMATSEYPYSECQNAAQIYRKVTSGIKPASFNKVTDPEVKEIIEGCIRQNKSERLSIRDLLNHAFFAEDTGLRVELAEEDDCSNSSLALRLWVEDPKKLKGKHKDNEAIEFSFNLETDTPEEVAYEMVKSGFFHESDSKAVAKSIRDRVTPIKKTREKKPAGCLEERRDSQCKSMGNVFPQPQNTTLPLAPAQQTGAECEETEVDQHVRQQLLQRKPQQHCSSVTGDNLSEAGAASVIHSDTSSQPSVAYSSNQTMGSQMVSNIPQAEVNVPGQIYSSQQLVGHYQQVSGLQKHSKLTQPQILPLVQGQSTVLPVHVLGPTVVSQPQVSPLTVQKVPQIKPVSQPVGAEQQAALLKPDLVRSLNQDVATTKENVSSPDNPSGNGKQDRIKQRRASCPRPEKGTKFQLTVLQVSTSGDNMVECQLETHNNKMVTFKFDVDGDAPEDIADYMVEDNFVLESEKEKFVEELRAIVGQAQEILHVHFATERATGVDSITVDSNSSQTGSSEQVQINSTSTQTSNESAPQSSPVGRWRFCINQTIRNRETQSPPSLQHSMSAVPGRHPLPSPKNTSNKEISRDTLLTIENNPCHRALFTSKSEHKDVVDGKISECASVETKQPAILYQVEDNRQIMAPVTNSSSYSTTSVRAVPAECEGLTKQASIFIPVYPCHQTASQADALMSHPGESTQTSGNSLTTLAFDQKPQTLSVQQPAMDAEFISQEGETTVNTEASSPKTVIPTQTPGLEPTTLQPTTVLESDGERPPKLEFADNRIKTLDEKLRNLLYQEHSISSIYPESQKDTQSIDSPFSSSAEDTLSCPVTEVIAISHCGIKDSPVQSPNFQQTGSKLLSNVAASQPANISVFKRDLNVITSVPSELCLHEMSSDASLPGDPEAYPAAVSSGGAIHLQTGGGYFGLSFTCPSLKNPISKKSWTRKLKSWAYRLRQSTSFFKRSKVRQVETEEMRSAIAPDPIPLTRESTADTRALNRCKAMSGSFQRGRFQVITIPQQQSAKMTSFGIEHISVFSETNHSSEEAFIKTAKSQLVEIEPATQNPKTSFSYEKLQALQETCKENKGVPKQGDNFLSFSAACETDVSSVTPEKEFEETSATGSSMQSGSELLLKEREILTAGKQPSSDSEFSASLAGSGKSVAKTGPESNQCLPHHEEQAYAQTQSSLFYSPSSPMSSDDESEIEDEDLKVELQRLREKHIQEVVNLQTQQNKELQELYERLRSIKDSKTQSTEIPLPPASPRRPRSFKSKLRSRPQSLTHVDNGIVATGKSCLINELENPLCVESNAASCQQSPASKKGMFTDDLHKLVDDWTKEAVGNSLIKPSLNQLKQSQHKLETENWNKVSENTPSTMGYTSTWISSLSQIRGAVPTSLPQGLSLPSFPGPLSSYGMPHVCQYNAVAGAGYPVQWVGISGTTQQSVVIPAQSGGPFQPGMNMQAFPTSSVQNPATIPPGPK

Structure (SMILES)	kinase still bound, per cent of control (BUB1 (human))	kinase still bound, per cent of control (RPS6KA3 KD2 (human))	kinase still bound, per cent of control (WNK3 (human))	kinase still bound, per cent of control (ABL1 (human))	kinase still bound, per cent of control [1]	kinase still bound, per cent of control (NEK10 (human))
CNC(=O)Nc1ccc(-c2nc(N3CC4CCC(C3)O4)c3cnn(C4CCC5(CC4)OCCO5)c3n2)cc1	52%	100%	100%	–	–	–
CCOc1cc(N2CCC(O)CC2)ccc1Nc1ncc2c(n1)N(C)c1ccccc1C(=O)N2C	–	–	–	100%	100%	–
O=c1[nH]c2ccccc2n1C1CCN(Cc2ccc(-c3nc4cc5[nH]cnc5cc4nc3-c3ccccc3)cc2)CC1	64%	100%	95%	–	–	78%
Cc1cn(-c2cc(C(=O)Nc3ccc(C)c(NC(=O)c4ccno4)c3)cc(C(F)(F)F)c2)cn1	–	–	–	8%	1.4%	–
COc1cc(C)c(Sc2cnc(NC(=O)c3ccc(CNC(C)C(C)C)cc3)s2)cc1C(=O)N1CCN(C(C)=O)CC1 (stereo not given)	–	–	–	100%	100%	–
COc1cc2ncnc(Nc3cccc(Cl)c3)c2cc1OC	0.3%	71%	78%	–	–	91%
COc1cc(N2CCC(C(N)=O)CC2)ccc1Nc1nc(N)c(Cl)c(Nc2ccccc2S(=O)(=O)C(C)C)n1	–	–	–	100%	12%	–
COc1ccc(N(C(=O)Oc2cc(C(=O)Nc3cccc(C(F)(F)F)c3)ccc2C)c2ccnc(Nc3ccc(N4CCN(C)CC4)cc3)n2)c(OC)c1	–	–	–	2%	–	–
